Marks after values point to notes of the source that are not given here.
Key:
[1] = tested on: Mouse-derived myoblast line C2C12 cell; assay: Cell differentiation promoting activity in myoblast (creatine kinase activity); type: cell-based; conditions: Mus musculus, C2C12, 48 h; compound at 0.01 μM (**); 2 days; without compound = 100%; read-out: creatine kinase activating action (%)
In short: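 C2C12 myoblasts at ≥90% subconfluence were switched to high-glucose DMEM with 2% horse serum plus compound for 2 days. Creatine kinase in NP-40/freeze-thaw lysates indexed differentiation, given as % of the DMSO control. Compounds were tested mostly at 1 μM, some at 10 μM or 0.01 μM.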

[2] = tested on: Female KKA^y mice; assay: Improvement of insulin resistance in KKA^y mouse (plasma glucose AUC after insulin); type: in vivo; conditions: 4 weeks, insulin 0.5 U/kg i.p.
Experimental: Female KKA^y mice (12-week-old, CLEA Japan, Inc.) were bred while allowing free ingestion of both feed and water. The mice were bred for acclimation with powder CE-2 (CLEA Japan, Inc.) from 2 weeks before administration of the compound. The body weight and plasma markers were measured and, at 14 weeks of age, they were divided into 4 groups (6 per group) such that the measured values were uniform. The compound of Reference Example 1 was administered for 4 weeks in a mixed feed (0.01-0.09 mg/kg/day). After fasting overnight, insulin was intraperitoneally administered at 0.5 U/kg and, after 30, 60 and 120 min, blood samples were collected.

[3] = tested on: C2C12 cells; assay: ATP content in muscle cell; type: cell-based, Mouse; conditions: for ATP content: two days, control group 100
Experimental: • (1) In the same manner as in Example 1, C2C12 cells were cultured in a growth medium to not less than 90% confluence. • (2) The medium was exchanged with a differentiation medium, and the cells were cultured until observation of myotube formation under a microscope. • (3) The compounds of Reference Example 1 and Reference Example 7 were added, and the cells were cultured for two days. • (4) ATP content was measured using Cell Titer-Glo™ Luminescence cell viable assay (Promega) and succinic acid dehydrogenase activity of mitochondria was measured using Cell Counting Kit-8 (Dojin). The data of Table 17 show mean±standard deviation at n=3-4 (n is the number of samples).

[4] = tested on: Male C57BL/6J mice on a high-fat diet; assay: Antiobesity, dyslipidemia and diabetes improving effect in mouse fed with high-fat diet; type: in vivo; set-up: plasma leptin (mg/dL): unit not given here; conditions: for epididymal fat mass / gastrocnemius muscle weight (g/100 g body weight) / hepatocyte weight / mesenteric fat mass: Day 38
Experimental: Male C57BL/6J mice (CLEA Japan, Inc.) were bred from 5-week-old on a high-fat diet (D12451, research diet) while allowing free ingestion of both feed and water to prepare obesity mice. The mice were bred for acclimation for 2 weeks from 21-week-old. The body weight and plasma markers were measured when 23-week-old, the mice were divided into 6 groups (6 per group) such that the values thereof were uniform, and Reference Example 1 (0.01-0.1 mg/kg) or Reference Example 7 (1-3 mg/kg) was orally administered for 5 weeks. After 14 and 28 days, plasma levels of total cholesterol, neutral lipid, glucose, insulin, leptin, adiponectin and glycated hemoglobin were measured. On the last day, the mice were autopsied, and weights of mesenteric fat, epididymal fat, liver and gastrocnemius muscle were measured. The data of Table 18 show mean±standard deviation at n=5-6 (n is the number of samples).

Cc1ncccc1Oc1sc(C(N)=O)c2c1-c1c(cnn1C)CC2 [Ref. Ex. 1, 1-methyl-8-[(2-methylpyridin-3-yl)oxy]-4,5-dihydro-1H-thieno[3,4-g]indazole-6-carboxamide]
activity at 0.01 µM [1]: 175%
glucose AUC0-120 min ([2]; 0.01 mg/kg/day in mixed feed): 241.0 mg·h/dL
glucose AUC0-120 min (mg h/dL) ([2]; 0.03 mg/kg/day in mixed feed): 184.7* mg h/dL
glucose AUC0-120 min (mg h/dL) ([2]; 0.09 mg/kg/day in mixed feed): 182.5* mg h/dL
ATP content of muscle cells (in words) [3]: did not decrease
ATP content ([3]; compound 0.01 nM): 108 ± 1
ATP content ([3]; compound 0.1 nM): 107 ± 0
ATP content ([3]; compound 1 nM): 112 ± 1
average amount of ingestion ([4]; 0.01 mg/kg oral): 3.7 ± 0.2 g/day
body weight (g) change ([4]; 0.01 mg/kg oral): 3.0 ± 1.2 g
body weight ([4]; 0.01 mg/kg oral, Day 0): 40.9 ± 2.5 g
glycated hemoglobin (%) ([4]; 0.01 mg/kg oral, Day 0): 4.5 ± 0.2%
plasma adiponectin (μg/dL)) ([4]; 0.01 mg/kg oral, Day 0): 15.9 ± 3.4 µg/dL
plasma glucose ([4]; 0.01 mg/kg oral, Day 0): 178.1 ± 26.5 mg/dL
plasma insulin ([4]; 0.01 mg/kg oral, Day 0): 4.2 ± 2.0 ng/mL
plasma leptin (mg/dL) ([4]; 0.01 mg/kg oral, Day 0): 54.2 ± 21.0
plasma neutral fats ([4]; 0.01 mg/kg oral, Day 0): 73.4 ± 15.1 mg/dL
plasma total cholesterol ([4]; 0.01 mg/kg oral, Day 0): 222.1 ± 45.4 mg/dL
glycated hemoglobin (%) ([4]; 0.01 mg/kg oral, Day 14): 4.0 ± 0.3 %
plasma adiponectin (μg/dL)) ([4]; 0.01 mg/kg oral, Day 14): 15.5 ± 2.5 µg/dL
plasma glucose ([4]; 0.01 mg/kg oral, Day 14): 156.0 ± 23.4 mg/dL
plasma insulin ([4]; 0.01 mg/kg oral, Day 14): 6.2 ± 5.8 ng/mL
plasma leptin (mg/dL) ([4]; 0.01 mg/kg oral, Day 14): 71.2 ± 22.0
plasma neutral fats ([4]; 0.01 mg/kg oral, Day 14): 59.4 ± 18.5 mg/dL
plasma total cholesterol ([4]; 0.01 mg/kg oral, Day 14): 182.6 ± 19.5 mg/dL
glycated hemoglobin (%) ([4]; 0.01 mg/kg oral, Day 28): 3.8 ± 0.4%
plasma adiponectin (μg/dL)) ([4]; 0.01 mg/kg oral, Day 28): 14.7 ± 2.9 µg/dL
plasma glucose ([4]; 0.01 mg/kg oral, Day 28): 162.9 ± 24.4 mg/dL
plasma insulin ([4]; 0.01 mg/kg oral, Day 28): 5.4 ± 3.9 ng/mL
plasma leptin (mg/dL) ([4]; 0.01 mg/kg oral, Day 28): 81.8 ± 23.9
plasma neutral fats ([4]; 0.01 mg/kg oral, Day 28): 45.5 ± 14.1 mg/dL
plasma total cholesterol ([4]; 0.01 mg/kg oral, Day 28): 187.2 ± 15.9 mg/dL
body weight ([4]; 0.01 mg/kg oral, Day 37): 44.9 ± 2.6 g
epididymal fat mass ([4]; 0.01 mg/kg oral): 0.91 ± 0.26 g
gastrocnemius muscle weight (g/100 g body weight) ([4]; 0.01 mg/kg oral): 0.373 ± 0.030 g/100 g body weight
hepatocyte weight ([4]; 0.01 mg/kg oral): 1.81 ± 0.23 g
mesenteric fat mass ([4]; 0.01 mg/kg oral): 0.87 ± 0.17 g
average amount of ingestion ([4]; 0.03 mg/kg oral): 3.2 ± 0.2 g/day
body weight (g) change ([4]; 0.03 mg/kg oral): -0.2 ± 0.9 g
body weight ([4]; 0.03 mg/kg oral, Day 0): 40.9 ± 2.2 g
glycated hemoglobin (%) ([4]; 0.03 mg/kg oral, Day 0): 4.5 ± 0.1%
plasma adiponectin (μg/dL)) ([4]; 0.03 mg/kg oral, Day 0): 18.0 ± 4.0 µg/dL
plasma glucose ([4]; 0.03 mg/kg oral, Day 0): 178.5 ± 27.8 mg/dL
plasma insulin ([4]; 0.03 mg/kg oral, Day 0): 6.0 ± 3.7 ng/mL
plasma leptin (mg/dL) ([4]; 0.03 mg/kg oral, Day 0): 70.3 ± 19.6
plasma neutral fats ([4]; 0.03 mg/kg oral, Day 0): 72.3 ± 34.0 mg/dL
plasma total cholesterol ([4]; 0.03 mg/kg oral, Day 0): 238.2 ± 19.0 mg/dL
glycated hemoglobin (%) ([4]; 0.03 mg/kg oral, Day 14): 4.1 ± 0.1 %
plasma adiponectin (μg/dL)) ([4]; 0.03 mg/kg oral, Day 14): 19.5 ± 3.1 µg/dL
plasma glucose ([4]; 0.03 mg/kg oral, Day 14): 154.9 ± 12.1 mg/dL
plasma insulin ([4]; 0.03 mg/kg oral, Day 14): 3.5 ± 2.1 ng/mL
plasma leptin (mg/dL) ([4]; 0.03 mg/kg oral, Day 14): 54.7 ± 19.0
plasma neutral fats ([4]; 0.03 mg/kg oral, Day 14): 50.9 ± 14.7 mg/dL
plasma total cholesterol ([4]; 0.03 mg/kg oral, Day 14): 165.6 ± 11.3 mg/dL
glycated hemoglobin (%) ([4]; 0.03 mg/kg oral, Day 28): 4.1 ± 0.1%
plasma adiponectin (μg/dL)) ([4]; 0.03 mg/kg oral, Day 28): 16.4 ± 3.8 µg/dL
plasma glucose ([4]; 0.03 mg/kg oral, Day 28): 167.0 ± 20.4 mg/dL
plasma insulin ([4]; 0.03 mg/kg oral, Day 28): 2.7 ± 0.8 ng/mL
plasma leptin (mg/dL) ([4]; 0.03 mg/kg oral, Day 28): 62.4 ± 18.1
plasma neutral fats ([4]; 0.03 mg/kg oral, Day 28): 54.4 ± 19.8 mg/dL
plasma total cholesterol ([4]; 0.03 mg/kg oral, Day 28): 170.3 ± 13.5 mg/dL
body weight ([4]; 0.03 mg/kg oral, Day 37): 41.0 ± 2.3 g
epididymal fat mass ([4]; 0.03 mg/kg oral): 0.72 ± 0.05 g
gastrocnemius muscle weight (g/100 g body weight) ([4]; 0.03 mg/kg oral): 0.407 ± 0.017 g/100 g body weight
hepatocyte weight ([4]; 0.03 mg/kg oral): 1.56 ± 0.11 g
mesenteric fat mass ([4]; 0.03 mg/kg oral): 0.57 ± 0.11 g
average amount of ingestion ([4]; 0.1 mg/kg oral): 2.7 ± 0.3 g/day
body weight (g) change ([4]; 0.1 mg/kg oral): -4.1 ± 0.7 g
body weight ([4]; 0.1 mg/kg oral, Day 0): 38.8 ± 3.5 g
glycated hemoglobin (%) ([4]; 0.1 mg/kg oral, Day 0): 4.5 ± 0.2%
plasma adiponectin (μg/dL)) ([4]; 0.1 mg/kg oral, Day 0): 16.8 ± 5.7 µg/dL
plasma glucose ([4]; 0.1 mg/kg oral, Day 0): 183.9 ± 35.2 mg/dL
plasma insulin ([4]; 0.1 mg/kg oral, Day 0): 4.3 ± 1.8 ng/mL
plasma leptin (mg/dL) ([4]; 0.1 mg/kg oral, Day 0): 55.7 ± 15.4
plasma neutral fats ([4]; 0.1 mg/kg oral, Day 0): 63.2 ± 9.1 mg/dL
plasma total cholesterol ([4]; 0.1 mg/kg oral, Day 0): 218.2 ± 19.0 mg/dL
glycated hemoglobin (%) ([4]; 0.1 mg/kg oral, Day 14): 4.0 ± 0.2 %
plasma adiponectin (μg/dL)) ([4]; 0.1 mg/kg oral, Day 14): 22.8 ± 3.8 µg/dL
plasma glucose ([4]; 0.1 mg/kg oral, Day 14): 159.6 ± 26.7 mg/dL
plasma insulin ([4]; 0.1 mg/kg oral, Day 14): 1.4 ± 0.6 ng/mL
plasma leptin (mg/dL) ([4]; 0.1 mg/kg oral, Day 14): 27.4 ± 19.1
plasma neutral fats ([4]; 0.1 mg/kg oral, Day 14): 25.2 ± 7.6 mg/dL
plasma total cholesterol ([4]; 0.1 mg/kg oral, Day 14): 129.1 ± 15.4 mg/dL
glycated hemoglobin (%) ([4]; 0.1 mg/kg oral, Day 28): 3.8 ± 0.2 %
plasma adiponectin (μg/dL)) ([4]; 0.1 mg/kg oral, Day 28): 19.2 ± 2.9 µg/dL
plasma glucose ([4]; 0.1 mg/kg oral, Day 28): 138.6 ± 17.3 mg/dL
plasma insulin ([4]; 0.1 mg/kg oral, Day 28): 1.4 ± 0.6 ng/mL
plasma leptin (mg/dL) ([4]; 0.1 mg/kg oral, Day 28): 29.2 ± 20.0
plasma neutral fats ([4]; 0.1 mg/kg oral, Day 28): 34.7 ± 12.5 mg/dL
plasma total cholesterol ([4]; 0.1 mg/kg oral, Day 28): 135.1 ± 15.4 mg/dL
body weight ([4]; 0.1 mg/kg oral, Day 37): 35.6 ± 3.9 g
epididymal fat mass ([4]; 0.1 mg/kg oral): 0.47 ± 0.10 g
gastrocnemius muscle weight (g/100 g body weight) ([4]; 0.1 mg/kg oral): 0.468 ± 0.033 g/100 g body weight
hepatocyte weight ([4]; 0.1 mg/kg oral): 1.37 ± 0.24 g
mesenteric fat mass ([4]; 0.1 mg/kg oral): 0.30 ± 0.08 g
body weight (in words) ([4]; obese mouse model fed with a high-fat diet): clear body weight decreasing action

Reference: patent US20130184272A1, “DIABETES THERAPEUTIC AGENT” (TAKEDA PHARMACEUTICAL COMPANY LIMITED, priority 2010, published 2013)
